Experimental data as given in EP4717275A1, “ANTI-LUNG CANCER COMBINED DRUG AND USE THEREOF” (Gunagdong Yinzhu Pharmaceutical Technology Co., Ltd, priority 2023, dated 2024).
“And” between values parts separate entries of the source, which are not always exact repeats. Identical values can stand only once. Like-named read-outs stand apart in the source and are kept apart here. Marks after values point to notes of the source that are not given here.

Tests used:
[1] = Animal body weight, fatality and toxicity observation in the NCI-H2228 xenograft study; assay type: in vivo, BALB/c Nude mice
Excerpt: (§1) BALB/c Nude mice, female, 8-10 weeks old, 18-20g. The variation of the body weight is ±20% around average body weight. 80 mice were inoculated and 60 mice were grouped.
(§2) The grouping day was designated as Day 0, and administration commenced according to animal body weight.
(§3) The same as the therapeutic effect evaluation experiments for Examples 1-2 and Comparative Examples 1-3.

NCI-H2228 cell = experiment: CCK8 proliferation assay with combination index analysis; assay type: cell-based, human; settings: Alectinib alone
Experimental: CCK8 method was used to evaluate the effect of the drugs towards proliferation of lung cancer cell line (NCI-H2228 cell). The cellular viability with different concentration of drug was assayed and the 50% inhibitory concentration was calculated.
Emerge NCI-H2228 cells (purchased from American Type Culture Collection (ATCC, Manassas, VA, USA)) from liquid nitrogen and thaw in a 37°C water bath. After thawing, culture cells in 1640 medium.
When cell density reached 90% confluence in culture medium, cells were digested with 0.25% trypsin and resuspended. After cell growth stabilized, cells in the logarithmic growth phase were harvested and counted using a cell counter and it was ensured that viability exceeded 85% for all cell lines.
Adjust cell concentration by diluting with culture medium. Add 100 µL of cell suspension to a 96-well plate to achieve a density of 3000 cells/well. Add 100 µL of PBS buffer to the wells around the cell-seeded wells.
Incubate the 96-well plate at 37°C, 5% CO2, and 95% humidity overnight.
Remove the cell culture plate from the incubator, aspirate the culture medium, and add the prepared drug-containing medium. Incubate at 37°C, 5% CO2, and 95% humidity for 72 hours.
Add 10 µL of CCK-8 solution to each well of the 96-well plate. Incubate the plate in the cell culture incubator for 1.5 hours. Measure the absorbance at 450 nm using a microplate reader.
Analyze data using GraphPad Prism 5.0 software. Fit the data using nonlinear S-curve regression to generate a dose-response curve and calculate the IC50 value. [formula]
The analysis of the combination index of the compound was performed using the median effect principle. The formula for the combination index of two compounds is: CI = (D)1/(Dx)1 + (D)2/(Dx)2 [formula]
Where: • (D)1---- The concentration of Compound 1 when compound 1 was used with another compound and the effect X was generated; • (D)2---- The concentration of Compound 2 when compound 2 was used with another compound and the effect X was generated; • (Dx)1---- The concentration of Compound 1 when compound 1 was used alone and the effect X was generated; • (Dx)2---- The concentration of Compound 2 when compound 2 was used alone and the effect X was generated.
The CI value enables quantitative assessment of the nature and strength of interactions between different compounds (Table 2). Interaction strength is measured using the weighted average CI (CIwt), calculated by the formula: CIwt = (CI50+2CI75+3CI90+4CI95)/10 [formula]
Where: • CI50 ---- CI value at EC50 (concentration achieving 50% effect) • CI75, CI90, and CI95 follow the same principle, representing the CI values at EC75, EC90, and EC95, respectively.
Evaluation of the combination effect: CI value is used to evaluate the combination effect, and the judgment method is shown in Table 7. Table 7 Judgment criteria of the results

[2] = tested on: human lung cancer NCI-H2228 xenografts; experiment: Therapeutic effect in vivo on NCI-H2228 xenografts in nude mice; design: species or system BALB/c Nude mice; settings: PO
Experimental: as §1
Table 9 Experimental design of therapeutic effect of the drugs in vivo
NCI-H2228 cells were cultured in RPMI 1640 medium supplemented with 10% FBS and maintained in a 37°C, 5% CO2 humidified incubator.
Log-phase NCI-H2228 cells were harvested, resuspended in RPMI 1640 basal medium containing 50% Matrigel, and adjusted to a concentration of 2 × 10^7 cells/mL. Under aseptic conditions, 0.1 mL of the cell suspension was injected subcutaneously into the right flank of mice at a concentration of 2 × 10^6 cells/0.1 mL/mouse.
When the mean tumor volume reached approximately 150 mm^3, animals were randomly grouped based on tumor volume, ensuring inter-group tumor volume variation was less than 10% of the mean.
as §2, §3

[3] = assay type: in vivo
Experimental: as §1, §2
Animal body weight and tumor volume were measured twice weekly throughout the experiment. Tumor length and width were measured using a digital caliper, with tumor volume estimated from these measurements.
Clinical observations were recorded daily to assess overall health status, weight abnormalities, behavioral changes, and other treatment-related adverse reactions.
In accordance with animal welfare regulations, animals meeting any of the following criteria during the study were removed from the experimental group and euthanized: 1. Body weight loss exceeding 20% compared to Day 0 (BWL ≥ 20%); 2. Severe adverse reactions such as blindness or paralysis; 3. Tumor volume exceeding 2000 mm^3; 4.
The animal body weight change rate (%BWC) is calculated as: (BWt - BW0) / BW0 × 100%, where BWt is the animal body weight at each measurement and BW0 is the animal body weight at grouping.
According to China's NMPA Technical Guidance Principles for Non-clinical Studies of Cytotoxic Antineoplastic Drugs (November 2006), %T/CRTV ≤ 40% and statistically significant P < 0.05 indicate efficacy. Drug-related animal mortality exceeding 20% indicates severe toxicity at that dose.
All experimental data in this study are expressed as Mean ± SEM.

[4] = tested on: human lung cancer NCI-H1975 xenografts; experiment: Therapeutic effect in vivo on NCI-H1975 xenografts in nude mice; design: species or system BALB/c Nude mice; settings: PO
Experimental: BALB/c Nude mice, female, 8-10 weeks old, 18-20g. […] Table 2 Experimental design of therapeutic effect of the drugs in vivo […] NCI-H1975 cells were cultured in RPMI 1640 medium supplemented with 10% FBS and maintained in a 37°C, 5% CO2 humidified incubator. Log-phase NCI-H1975 cells were harvested, resuspended in RPMI 1640 basal medium containing 50% Matrigel, and adjusted to a concentration of 2 × 10^7 cells/mL. Under aseptic conditions, 0.1 mL of the cell suspension was injected subcutaneously into the right flank of mice at a concentration of 2 × 10^6 cells/0.1 mL/mouse. […] The grouping day was designated as Day 0, and administration commenced according to animal body weight. […] Animal body weight and tumor volume were measured twice weekly throughout the experiment. Tumor length and width were measured using a digital caliper, with tumor volume estimated from these measurements. After the final weighing on Day 21, remaining animals were euthanized with CO2. Tumors were weighed, photographed, and the experiment concluded. […] Tumor growth inhibition rate (%TGITV) is calculated as: […] Relative Tumor Volume (RTV) is calculated as Vt/V0, where V0 is the tumor volume at grouping and Vt is the tumor volume at each measurement. Relative Tumor Growth Rate (%T/CRTV) is calculated as TRTV/CRTV × 100%, where TRTV is the RTV of the treatment group and CRTV is the RTV of the negative control group. Tumor growth inhibition rate (%TGITW) is calculated as: ([…] × 100%, where TWc is the average tumor weight in the negative control group and TWT is the average tumor weight in the treatment group. […] Drug-related animal mortality exceeding 20% indicates severe toxicity at that dose. All experimental data in this study are expressed as Mean ± SEM. The evaluation of the combination index (CI) of drugs relies on the following equation: […]), wherein E(A+B) is the inhibition rate of combination drug, EA and EB is the inhibition rate of drug A and drug B respectively. E(A+B) in the equation represents 'measured synergistic effect' and (EA+EB-EA×EB) is 'expected synergistic effect'. CI=0.85-1.15 indicates a mere addition of the effect of two drugs, >1.15 indicates enhancement (or synergy), and <0.85 indicates antagonism. • Combination index of tumor growth inhibition: CAI, 40mg/kg + AZD9291, 1mg/kg: 1.27; […] CAI, 40mg/kg + AZD9291, 1mg/kg: 1.20; […]

[5] = %TGITV from tumor volume vs control, QD×21
[6] = %TGITW from tumor weight vs control, QD×21

SMILES: CCc1cc2c(cc1N1CCC(N3CCOCC3)CC1)C(C)(C)c1[nH]c3cc(C#N)ccc3c1C2=O [Alectinib]
- Fatality ([1]; dead/total animals at Day 21, NCI-H2228 study, PO, QD×21): 0/10 (Day 21)
- inhibitory effect on animal weight gain ([1]; mouse, in vivo): slight inhibition effect on animal body weight
- Average body weight (g, Mean ± SEM) Day 0 ([1]; mouse, in vivo, po): 22.48 ± 0.33 g
- Average body weight (g, Mean ± SEM) Day 21 ([1]; mouse, in vivo, po): 22.20 ± 0.41 g
- Body weight change Day 21 vs Day 0 (g, in brackets) ([1]; mouse, in vivo, po): -0.28 g
- Body weight change rate Day 21 vs Day 0 ([1]; mouse, in vivo, po): -1.13%
- IC50 (NCI-H2228 cell; single plates 1-3, 72 hours, read-out: IC50 (Alectinib)): 471 nM and 546 nM
- IC50 (NCI-H2228 cell; Homo sapiens, NCI-H2228, 72 h, average of 3 plates, read-out: IC50 (Alectinib)): 527 nM
- IC50 (NCI-H2228 cell; Homo sapiens, NCI-H2228, 72 h, single plates 1-3, read-out: IC50 (Alectinib)): 563 nM
- Relative tumor proliferation rate(%) Day 21 ([2]; %T/CRTV, QD×21): 59.77%
- Tumor growth inhibition rate(%) Day 21 [2, 5]: 41.23%
- Tumor inhibition rate(%) Day 21 [2, 6]: 49.14%
- Tumor volume (mm^3,Mean±SEM) Day 21 ([2]; QD×21, dose per group): 863.95± 98.37* mm^3
- Tumor weight (g,Mean±SEM) Day 21 ([2]; QD×21, listed as Comparative Example 4): 0.444 ± 0.049 g
- Relative tumor volume Day 21 ([2]; RTV = Vt/V0, Mean ± SEM, QD×21): 5.23± 0.32

SMILES: C=CC(=O)Nc1cc(Nc2nccc(-c3cn(C)c4ccccc34)n2)c(OC)cc1N(C)CCN(C)C [Comparative Example 1, osimertinib]
- Fatality ([3]; dead/total animals at Day 21, NCI-H1975 study, PO, QD×21): 0/10 (Day 21)
- Average body weight (g, Mean ± SEM) Day 0 ([3]; mouse, in vivo, po): 19.47 ± 0.28 g
- Average body weight (g, Mean ± SEM) Day 21 ([3]; mouse, in vivo, po): 21.46 ± 0.42 g
- Body weight change Day 21 vs Day 0 (g, in brackets) ([3]; mouse, in vivo, po): 1.99 g
- Body weight change rate Day 21 vs Day 0 ([3]; mouse, in vivo, po): 10.15%
- Relative tumor proliferation rate(%) Day 21 ([4]; %T/CRTV, QD×21): 81.08%
- Tumor growth inhibition rate(%) Day 21 [4, 5]: 21.02%
- Tumor inhibition rate(%) Day 21 [4, 6]: 14.73%
- Tumor weight (g,Mean±SEM) Day 21 ([4]; QD×21): 1.401 ± 0.212 g
- Tumor volume (mm^3,Mean±SEM) Day 21 ([4]; QD×21, dose per group): 1394.40 ±181.52 mm^3
- Relative tumor volume Day 21 ([4]; RTV = Vt/V0, Mean ± SEM, QD×21): 8.74 ± 0.73
